Source: US3991200A, “Substituted nitroimidazolyl thiadiazoles and oxadiazoles as antibacterial agents and growth promoting compounds” (American Cyanamid Company, priority 1973, dated 1976)
Like-named read-outs stand apart in the source and are kept apart here.

Legend:
bacteria = settings: prior-art compounds; cited from earlier work
[1] = concentrations of drug in plasma of noninfected mice (agar-diffusion assay); type: in vivo; settings: for Cmax: mouse, read-out: Peak concn. in plasma
Description: Concentrations of drug in plasma are determined by assay of blood obtained by heart puncture of noninfected mice. Blood samples (about 0.5 ml. per mouse) from 10 mice receiving the same dose of drug are pooled. The drug is assayed in the plasma by a standard agar-diffusion plate method with Bacillus subtilis (Lederle No. 17) as the test organism.

solubility in water = type: physicochemical
Salmonella gallinarum = experiment: controlling fowl typhoid in chicks, medicated feed; type: in vivo, Salmonella gallinarum (in sex-linked pullet chicks); settings: 10 days
Description: Groups of five one-day old sex-linked pullet checks are infected orally by gavage with 0.5 ml. of a 10^-^2 dilution of a five-hour Trypticase Soy Broth culture of Salmonella gallinarum, the causative agent of fowl typhoid. Each chick receives approximately 6 × 10^5 viable cells. Medication is administered continuously in the feed, beginning 3 hours before infection and continuing for 10 days, at which time the test is terminated and the number of survivors in each group recorded. Each test utilizes two control groups of chicks, the first group comprising 20 chicks which are infected and untreated, and the second group comprising 10 chicks which are uninfected and untreated. The results of the tests are set forth in the following Table III (in some instances, the results from two or more tests are combined): […]

[2] = test system: Staphylococcus aureus strain Rose; experiment: antibacterial activity in mice, Tests with Staphylococcus aureus strain Rose; type: in vivo, Staphylococcus aureus (in Carworth Farms CFl-s female mice); settings: read-out: Results alive/tested (converted)
Description: (§1) Experiments were conducted to determine the antibacterial activity of compounds of the present invention against Proteus mirabilis, Staphylococus aureus strain Smith and Staphylococcus aureus strain Rose a tetracycline-resistant strain of Staphylococcus aureus. Infection was initiated in Carworth Farms CFl-s female mice (body weight […].) by intra-abdominal infection of 0.5 ml. of the broth dilutions of 5 hour cultures of the above organisms.

Pasteurella multocida [3] = experiment: controlling a Pasteurella multocida infection in mice; type: in vivo, Pasteurella multocida (in Swiss Webster female mice); settings: 336 h, 2 mg./mouse by gavage, two weeks post-infection, read-out: Survivors/Total (converted)
Description: Swiss Webster, female mice weighing 22±2 g. were infected by intrapeutoneal injection of 0.5 ml. of a 5 hour Trypticase Soy Broth culture containing 10^7 cfu. of P. multocida. Each mouse was given by gavage at the time of infection 2 mg. of the test drug suspended in 0.2% agar.

Escherichia coli = experiment: controlling colibacillosis in chicks infected with Escherichia coli, single oral dose; type: in vivo, Escherichia coli (in sex-linked pullet chicks); settings: 20 chicks tested, 12 days after treatment
Description: Three groups of 10 five-day old sex-linked pullet chicks are infected parenterally, in the left thoracic air sac, with 0.2 ml. of a 10^-^1 dilution of a Trypticase Soy Broth culture of Escherichia coli, the causative agent of colibacillosis in poultry. The compounds to be tested are administered by gavage as a single oral dose in an aqueous solution or suspension, and the chicks are permitted to feed ad libitum the feed composition prepared in Example 44. Twelve days after treatment, the test is terminated and the number of survivors in each group recorded.
Four groups of 40, five-day old sex-linked pullet chicks are infected in the same manner as herein set forth with Escherichia coli. […] Twelve days after treatment, the test is terminated and the number of survivors in each group recorded.

Pasteurella multocida [4] = experiment: controlling a Pasteurella multocida infection in mice; type: in vivo, Pasteurella multocida (in Swiss Webster female mice); settings: 336 h, two weeks post-infection, read-out: Survivors/Total (converted); for responders at 0.25 mg: 0.25 mg./mouse by gavage; for responders at 0.5 mg: 0.5 mg./mouse by gavage; for responders at 1 mg: 1 mg./mouse by gavage
[5] = test system: Salmonella choleraesuis var. kunzendorf; experiment: controlling enteritis, mice infected with Salmonella choleraesuis, medicated feed; type: in vivo; settings: 10 mice tested
Description: Three groups of ten female Swiss Webster mice weighing 20 gm. are infected intraperitoneally with 0.5 ml. of 10^-^2 dilution of a five-hour Trypticase Soy Broth culture of Salmonella choleraesuis var. kunzendorf, the causitive agent of enteritis in pigs, an organism originally recovered from a field outbreak of Salmonella choleraesuis var. kunzendorf in pigs. Each mouse receives approximately 4.6 × 10^7 cells as the inoculating dose.
The mice are fed a medicated feed, which is a commercial mouse chow containing the compounds to be tested for 3 hours before the infection until 7 days after infection. The mice are held for an additional 7 days after the medication is stopped, and the number of survivors in each group recorded. The medicated feed is prepared by thoroughly admixing calculated amounts of the compounds with commercial mouse chow to provide essentially uniform distribution in the feed offered.

[6] = test system: Staphylococcus aureus strain Smith; experiment: antibacterial activity in mice, Tests with Staphylococcus aureus strain Smith; type: in vivo, Staphylococcus aureus (in Carworth Farms CFl-s female mice); settings: read-out: Results alive/tested (converted)
Description: as §1

Proteus mirabilis = experiment: antibacterial activity in mice, Tests with Proteus mirabilis; type: in vivo, Proteus mirabilis (in Carworth Farms CFl-s female mice); settings: 256 mg/kg
Description: as §1

[7] = test system: Salmonella choleraesuis var. kunzendorf; experiment: controlling enteritis caused by Salmonella choleraesuis in swine, medicated feed; type: in vivo, Salmonella choleraesuis var. kunzendorf (in pigs)
Excerpt: In the late afternoon of the day before infection, feed is removed from all pens. The following morning each group receives 2.5 lbs. of feed mixed either with normal broth or broth containing Salmonella choleraesuis variety kunzendorf organisms. […] For the rest of the trial the pigs are observed and graded daily. […] The trial is terminated four weeks after infection.

[8] = 0.006% in feed, 10 chicks tested
[9] = 0.025% in feed, 10 chicks tested

For `Cn1c([N+](=O)[O-])cnc1C=NN1CCNC1=O` [1-[(1-methyl-5-nitro-2-imidazolylmethylene)amino]-2-imidazolidinone], the “antibacterial activity, in words” value (bacteria) is listed as “some antibacterial activity”.
For `Cn1c([N+](=O)[O-])cnc1-c1nnc(N)s1` [2-(2-Amino-5-Thiadiazolyl)-1-methyl-5-nitroimidazole], the “absorption, in words” value ([1]; mice) was “rapidly absorbed”, the Cmax ([1]; in vivo, 89 mg/kg) was 14000 to 18000 ng/mL and the Cmax ([1]; plasma, 0.2 mg/kg) was < 1000 ng/mL. For the same compound, the Cmax ([1]; plasma, 16 mg/kg) was 2000 to 4000 ng/mL, the Cmax ([1]; plasma, 56 mg/kg) was 6000 to 12000 ng/mL and the “solubility in water, in words” value (solubility in water) was “relatively insoluble in water”.
With `CCn1c([N+](=O)[O-])cnc1-c1nnc(N)o1` [2-(2-Amino-5-oxadiazolyl)-1-ethyl-5-nitroimidazole] the Survivors (Salmonella gallinarum; 0.006% in feed, 5 chicks tested) was 3, the Survivors (Salmonella gallinarum; 0.025% in feed, 5 chicks tested) was 5 and the Survivors (Salmonella gallinarum; 0.1% in feed, 10 chicks tested) was 10. It also gave a responders at 512 mg/kg [2] of 100% and a responders at 2 mg (Pasteurella multocida [3]) of 80%.
`Cn1c([N+](=O)[O-])cnc1-c1nnc(N)o1` [2-(2-Amino-5-oxadiazolyl)-1-methyl-5-nitroimidazole] showed a Survivors (Escherichia coli; 5 mg/kg single oral dose) of 7, a Survivors (Escherichia coli; 20 mg/kg single oral dose) of 13 and a Survivors (Escherichia coli; 80 mg/kg single oral dose) of 15. For the same compound, the Survivors (Salmonella gallinarum; [8]) was 9, the Survivors (Salmonella gallinarum; [9]) was 10 and the Survivors (Salmonella gallinarum; 0.1% in feed, 10 chicks tested) was 10. For the same compound, the responders at 512 mg/kg [2] was 100%, the responders at 2 mg (Pasteurella multocida [3]) was 70% and the responders at 0.25 mg (Pasteurella multocida [4]) was 10%. The responders at 0.5 mg (Pasteurella multocida [4]) was 15% and the responders at 1 mg (Pasteurella multocida [4]) was 40%.
With `CCn1c([N+](=O)[O-])cnc1-c1nnc(N)s1` [2-(2-Amino-5-thiadiazolyl)-1-ethyl-5-nitroimidazole] the Survivors (Salmonella gallinarum; [9]) was 9, the Survivors (Salmonella gallinarum; 0.1% in feed, 10 chicks tested) was 10 and the Survivors ([5]; 0.025% in mouse chow) was 3. It also gave a Survivors ([5]; 0.1 % in mouse chow) of 9, a responders at 512 mg/kg [2] of 100% and a responders at 2 mg (Pasteurella multocida [3]) of 100%.
`CN(C)c1nnc(-c2ncc([N+](=O)[O-])n2C)o1` [2-(2-Dimethylamino-5-oxadiazolyl)-1-methyl-5-nitroimidazole] showed a Survivors (Salmonella gallinarum; [8]) of 2, a Survivors (Salmonella gallinarum; [9]) of 9 and a Survivors (Salmonella gallinarum; 0.1% in feed, 10 chicks tested) of 9. It also gave a responders at 512 mg/kg [2] of 100%.
With `CN(C)c1nnc(-c2ncc([N+](=O)[O-])n2C)s1` [2-(2-Dimethylamino-5-thiadiazolyl)-1-methyl-5-nitroimidazole] the Survivors (Salmonella gallinarum; 0.1% in feed, 5 chicks tested) was 4 and the responders at 512 mg/kg ([6]; 512 mg/kg) was 80%.
For `Cn1c([N+](=O)[O-])cnc1-c1nnc(NC=O)s1` [2-(2-Formamido-5-Thiadiazolyl)-1-methyl-5-nitroimidazole], the Survivors (Salmonella gallinarum; 0.006% in feed, 15 chicks tested) was 9, the Survivors (Salmonella gallinarum; 0.025% in feed, 15 chicks tested) was 11 and the Survivors (Salmonella gallinarum; 0.1% in feed, 10 chicks tested) was 5. For the same compound, the responders at 64 mg/kg [6] was 100%, the responders at 512 mg/kg [2] was 100% and the responders at 2 mg (Pasteurella multocida [3]) was 100%. For the same compound, the responders at 0.25 mg (Pasteurella multocida [4]) was 80%, the responders at 0.5 mg (Pasteurella multocida [4]) was 100% and the responders at 1 mg (Pasteurella multocida [4]) was 90%.
For `CNc1nnc(-c2ncc([N+](=O)[O-])n2C)s1` [2-(2-Methylamino-5-thiadiazolyl)-1-methyl-5-nitroimidazole], the Survivors (Salmonella gallinarum; 0.1% in feed, 5 chicks tested) was 3, the Results alive/tested (Proteus mirabilis) was 4/5 and the responders at 512 mg/kg [2] was 80%.
In the case of `CN(C)CCCN1CCN(c2nnc(-c3ncc([N+](=O)[O-])n3C)s2)CC1` [2-{2-[4-(3-Dimethylaminopropyl)-1-piperazinyl]-5-thiadiazolyl}-1-methyl-5-nitroimidazole], the responders at 256 mg/kg [6] is reported as 60% and the responders at 2 mg (Pasteurella multocida [3]) is reported as 100%.
In the case of `CN(C)C=Nc1nnc(-c2ncc([N+](=O)[O-])n2C)s1` [2-{2-[ (Dimethylaminomethylene)amino]-5-thiadiazolyl} -1-methyl-5-nitroimidazole], the Survivors (Salmonella gallinarum; 0.05% in feed, 5 chicks tested) is reported as 5, the Survivors (Salmonella gallinarum; 0.1% in feed, 5 chicks tested) is reported as 5 and the Results alive/tested (Proteus mirabilis) is reported as 3/5. For the same compound, the responders at 64 mg/kg [6] was 100%, the responders at 2 mg (Pasteurella multocida [3]) was 100% and the responders at 0.25 mg (Pasteurella multocida [4]) was 80%. The responders at 0.5 mg (Pasteurella multocida [4]) was 97.5% and the responders at 1 mg (Pasteurella multocida [4]) was 93.3%.
For `CCOC(=O)N1CCN(c2nnc(-c3ncc([N+](=O)[O-])n3C)s2)CC1` [2[2-(4-Carbethoxy-1-piperazinyl)-5-thiadiazolyl]-1-methyl-5-nitroimidazole], the responders at 256 mg/kg [6] was 80%.
For `Cn1c([N+](=O)[O-])cnc1C=NN1CCOC1=O` [3-[(1-methyl-5-nitro-2-imidazolylmethylene)amino]-2-oxazolidinone], the “antibacterial activity, in words” value (bacteria) is listed as “some antibacterial activity”.
For `O=C1OCCN1/N=C/c1ccc([N+](=O)[O-])o1` [Furazolidone], the “Median Survival Time” value ([7]; 50 ppm in diet) was 6.8 days, the “Survivors Per Total” value ([7]; 50 ppm in diet ([…] per day nitroimidazole, 2.1 furazolidone)) was 0/10 and the “Median Survival Time” value ([7]; 200 ppm in diet) was 10.0 days. For the same compound, the “Survivors Per Total” value ([7]; 200 ppm in diet (12.3 mg/kg per day nitroimidazole, 7.5 furazolidone), *9/10 differs significantly from infected-untreated (P<.01)) was 2/10.
